By IC50 is commonly meant the concentration needed to halve the response being measured. As a reminder, the Ki is the equilibrium dissociation constant of an inhibitor or competing ligand from its target.

This passage reports IC50 and Ki results from ChEMBL document CHEMBL1909046, “DrugMatrix in vitro pharmacology data”.

For test [1], the target named is T1, Polyunsaturated fatty acid lipoxygenase ALOX15 (Oryctolagus cuniculus, UniProt P12530).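 Also: inhibition of 15-lipoxygenase enzyme activity measured with linoleic acid as the substrate; in other assays of this panel Not Active means under 50% inhibition at 10 µM.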
T1 sequence (P12530 whole entry): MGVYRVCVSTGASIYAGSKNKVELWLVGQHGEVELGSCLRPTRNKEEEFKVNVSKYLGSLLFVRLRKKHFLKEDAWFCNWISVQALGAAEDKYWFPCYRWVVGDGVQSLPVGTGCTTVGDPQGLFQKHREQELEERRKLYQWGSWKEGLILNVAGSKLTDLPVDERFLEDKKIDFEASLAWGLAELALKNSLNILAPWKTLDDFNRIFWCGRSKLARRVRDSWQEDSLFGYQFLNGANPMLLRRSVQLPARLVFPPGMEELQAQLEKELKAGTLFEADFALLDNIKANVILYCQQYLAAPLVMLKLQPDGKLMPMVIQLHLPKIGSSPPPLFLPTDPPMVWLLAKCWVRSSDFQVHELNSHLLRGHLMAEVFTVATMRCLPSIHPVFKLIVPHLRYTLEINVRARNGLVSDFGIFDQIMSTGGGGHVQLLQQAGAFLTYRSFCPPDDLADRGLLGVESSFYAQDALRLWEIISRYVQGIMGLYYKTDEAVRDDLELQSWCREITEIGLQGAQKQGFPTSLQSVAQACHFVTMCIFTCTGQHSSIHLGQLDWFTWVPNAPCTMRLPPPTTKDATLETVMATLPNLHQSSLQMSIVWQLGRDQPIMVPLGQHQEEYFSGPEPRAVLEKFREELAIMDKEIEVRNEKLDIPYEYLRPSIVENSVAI
As to the kind of experiment: biochemical. The following applies: reticulocytes. Type of test: tissue-based, Reticulocytes.

The target of test [2] is cGMP-specific 3',5'-cyclic phosphodiesterase (Homo sapiens, UniProt O76074). As to the kind of experiment: DRUGMATRIX: Phosphodiesterase PDE5 enzyme inhibition (substrate: [3H]cGMP + cGMP). Format: tissue-based, Platelet. Conditions: platelet; Not Active = under 50% inhibition at 10 µM.
In test [3] the target is T2, Alpha-2C adrenergic receptor (Homo sapiens, UniProt P18825).
T2 sequence (P18825 whole entry): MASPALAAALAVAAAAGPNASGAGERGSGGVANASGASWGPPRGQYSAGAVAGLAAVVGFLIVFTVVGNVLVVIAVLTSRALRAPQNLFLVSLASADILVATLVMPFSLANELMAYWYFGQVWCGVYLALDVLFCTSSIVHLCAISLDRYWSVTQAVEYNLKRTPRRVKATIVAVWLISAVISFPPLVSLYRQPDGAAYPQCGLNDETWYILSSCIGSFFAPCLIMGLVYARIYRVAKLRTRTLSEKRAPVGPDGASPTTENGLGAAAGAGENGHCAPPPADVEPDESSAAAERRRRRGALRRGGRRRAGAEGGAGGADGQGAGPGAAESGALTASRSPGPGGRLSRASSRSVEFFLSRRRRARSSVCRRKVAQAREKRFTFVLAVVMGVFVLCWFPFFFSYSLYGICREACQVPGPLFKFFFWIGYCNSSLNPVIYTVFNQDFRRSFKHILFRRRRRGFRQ
As to the kind of experiment: DRUGMATRIX: Adrenergic Alpha-2C radioligand binding (ligand: [3H] MK-912). Type of test: cell membranes, Sf9, Membrane.

Test [4] deals with T3, Cathepsin G (Homo sapiens, UniProt P08311).
T3 sequence (P08311 whole entry): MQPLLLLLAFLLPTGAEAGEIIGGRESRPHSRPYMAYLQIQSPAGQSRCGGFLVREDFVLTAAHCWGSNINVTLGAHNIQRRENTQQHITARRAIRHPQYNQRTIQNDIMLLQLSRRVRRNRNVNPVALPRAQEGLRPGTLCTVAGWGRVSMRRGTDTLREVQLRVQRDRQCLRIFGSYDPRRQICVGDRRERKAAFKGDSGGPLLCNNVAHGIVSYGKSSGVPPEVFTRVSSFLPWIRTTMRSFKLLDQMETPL
Type of test: tissue-based. Conditions: neutrophil.

In test [5] the target is Vasopressin V1a receptor (Homo sapiens, UniProt P37288). Type of test: cell membranes, Membrane. Conditions: hek293. Also: in other assays of this panel Not Active means under 50% inhibition at 10 µM.
For test [6], the target named is Sodium-dependent noradrenaline transporter (Homo sapiens, UniProt P23975). As to the kind of experiment: DRUGMATRIX: Norepinephrine Transporter radioligand binding (ligand: [125I] RTI-55). Type of test: cell membranes, MDCK, Membrane. The following applies: Not Active = under 50% inhibition at 10 µM.
For test [7], the target named is Mu-type opioid receptor (Homo sapiens, UniProt P35372). As to the kind of experiment: DRUGMATRIX: Opiate mu (OP3, MOP) radioligand binding (ligand: [3H] Diprenorphine). Conditions: cho-k1; Not Active = under 50% inhibition at 10 µM. Type of test: cell membranes, CHO-K1, Membrane.
Mu-type opioid receptor, sequence (P35372 whole entry): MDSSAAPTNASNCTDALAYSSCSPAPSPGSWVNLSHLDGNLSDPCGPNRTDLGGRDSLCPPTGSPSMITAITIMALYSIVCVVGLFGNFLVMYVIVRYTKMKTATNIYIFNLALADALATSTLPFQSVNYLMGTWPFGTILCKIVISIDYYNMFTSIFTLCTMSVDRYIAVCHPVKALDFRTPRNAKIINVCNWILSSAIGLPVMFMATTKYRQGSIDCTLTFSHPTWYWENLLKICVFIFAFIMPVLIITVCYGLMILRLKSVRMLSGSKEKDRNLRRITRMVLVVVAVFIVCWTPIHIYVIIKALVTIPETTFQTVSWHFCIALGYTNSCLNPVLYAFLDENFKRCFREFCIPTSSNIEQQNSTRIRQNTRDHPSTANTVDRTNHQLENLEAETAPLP

Sodium-dependent noradrenaline transporter, sequence (P23975 whole entry): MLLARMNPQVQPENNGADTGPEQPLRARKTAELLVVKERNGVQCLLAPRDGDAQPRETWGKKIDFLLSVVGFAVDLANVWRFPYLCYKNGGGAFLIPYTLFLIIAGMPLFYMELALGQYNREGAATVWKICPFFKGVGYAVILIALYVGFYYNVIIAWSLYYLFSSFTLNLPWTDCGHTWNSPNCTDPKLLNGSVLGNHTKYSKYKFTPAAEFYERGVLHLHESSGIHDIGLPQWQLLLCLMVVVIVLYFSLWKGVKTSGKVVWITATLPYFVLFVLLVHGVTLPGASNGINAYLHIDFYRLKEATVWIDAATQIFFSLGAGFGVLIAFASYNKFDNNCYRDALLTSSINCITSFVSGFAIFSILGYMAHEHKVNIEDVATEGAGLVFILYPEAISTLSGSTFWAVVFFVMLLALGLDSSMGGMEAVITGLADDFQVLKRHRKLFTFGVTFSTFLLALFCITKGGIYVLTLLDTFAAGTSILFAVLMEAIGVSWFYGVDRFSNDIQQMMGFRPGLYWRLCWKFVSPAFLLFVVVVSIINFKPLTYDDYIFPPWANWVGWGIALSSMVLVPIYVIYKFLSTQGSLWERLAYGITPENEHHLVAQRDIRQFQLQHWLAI
Vasopressin V1a receptor, sequence (P37288 whole entry): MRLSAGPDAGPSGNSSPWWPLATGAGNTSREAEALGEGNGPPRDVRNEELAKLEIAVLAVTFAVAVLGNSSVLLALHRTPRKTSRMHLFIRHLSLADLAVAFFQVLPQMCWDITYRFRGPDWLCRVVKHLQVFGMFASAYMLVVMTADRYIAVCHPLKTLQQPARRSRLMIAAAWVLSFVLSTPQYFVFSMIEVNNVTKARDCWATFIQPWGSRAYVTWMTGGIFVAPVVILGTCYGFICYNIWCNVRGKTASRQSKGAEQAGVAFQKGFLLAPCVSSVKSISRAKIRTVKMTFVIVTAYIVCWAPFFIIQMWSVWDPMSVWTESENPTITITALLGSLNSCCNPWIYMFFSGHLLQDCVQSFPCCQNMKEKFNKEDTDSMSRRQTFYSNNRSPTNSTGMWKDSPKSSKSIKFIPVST

Take `CC(=O)Oc1ccc(C(c2ccc(OC(C)=O)cc2)c2ccccn2)cc1` [BISACODYL]: the IC50 result in test [1], in test [2], in test [3] (sf9), in test [4], in test [5] and in test [6] (mdck) was “Not Active” each time. Further, in test [7], the IC50 entry is “Not Active”.

Consider `Cc1cc2c(OCC(CNC(C)(C)C)OC(=O)c3ccccc3)cccc2[nH]1` (stereo not drawn) [BOPINDOLOL], for which the IC50 entry in test [1], in test [2], in test [3] (sf9), in test [4], in test [5] and in test [6] (mdck) was “Not Active” throughout. For the same molecule, in test [7], the IC50 entry is given as “Not Active”.

With `Brc1c(NC2=NCCN2)ccc2nccnc12` [BRIMONIDINE], the IC50 result in test [1], in test [2], in test [3] (sf9), in test [4], in test [5] and in test [6] (mdck) was “Not Active” each time. Besides, the IC50 result in test [7] is “Not Active”.

Regarding `CN(C)[C@@H]1C(O)=C(C(N)=O)C(=O)[C@@]2(O)C(O)=C3C(=O)c4c(O)ccc(Cl)c4[C@@](C)(O)[C@H]3C[C@@H]12` [CHLORTETRACYCLINE], the IC50 result in test [1], in test [2], in test [3] (sf9), in test [4], in test [5] and in test [6] (mdck) was “Not Active” in each case. Also, the IC50 entry in test [7] was “Not Active”.

`CN/C(=N\CCSCc1nc[nH]c1C)NC#N` [CIMETIDINE]: the IC50 entry in test [1], in test [2], in test [3] (sf9), in test [4], in test [5] and in test [6] (mdck) was “Not Active” throughout. For the same molecule, the IC50 entry in test [7] was “Not Active”.

`CCC(=O)O[C@]1(C(=O)CCl)[C@@H](C)C[C@H]2[C@@H]3CCC4=CC(=O)C=C[C@]4(C)[C@@]3(F)[C@@H](O)C[C@@]21C` [CLOBETASOL PROPIONATE]: the IC50 entry in test [1], in test [2], in test [3] (sf9), in test [4], in test [5] and in test [6] (mdck) was “Not Active” in each case. In test [7], the IC50 entry is recorded as “Not Active”.

Consider `O=C1CN=C(c2ccccc2Cl)c2cc([N+](=O)[O-])ccc2N1` [CLONAZEPAM], for which the IC50 entry in test [1], in test [2], in test [3] (sf9), in test [4], in test [5] and in test [6] (mdck) was “Not Active” each time. The half-inhibitory concentration (IC50) entry in test [7] is “Not Active”.

Consider `Nc1ccn([C@@H]2O[C@H](CO)[C@@H](O)[C@@H]2O)c(=O)n1` [CYTARABINE], for which the IC50 result in test [1], in test [2], in test [3] (sf9), in test [4], in test [5] and in test [6] (mdck) was “Not Active” throughout. Besides, the IC50 entry in test [7] is “Not Active”.

For the molecule `C[C@@H]1C[C@H]2[C@@H]3CCC4=CC(=O)C=C[C@]4(C)[C@@]3(F)[C@@H](O)C[C@]2(C)[C@H]1C(=O)CO` [DESOXIMETASONE], the IC50 result in test [1], in test [2], in test [3] (sf9), in test [4], in test [5] and in test [6] (mdck) was “Not Active” throughout. Besides, the IC50 entry in test [7] is “Not Active”.

Regarding `C[C@@H]1C[C@H]2[C@@H]3CCC4=CC(=O)C=C[C@]4(C)[C@@]3(F)[C@@H](O)C[C@]2(C)[C@@]1(O)C(=O)CO` [DEXAMETHASONE], the IC50 entry in test [1], in test [2], in test [3] (sf9), in test [4], in test [5] and in test [6] (mdck) was “Not Active” throughout. The IC50 result in test [7] is “Not Active”.

`CN(C)CC[C@@H](c1ccc(Cl)cc1)c1ccccn1` [DEXCHLORPHENIRAMINE]: the IC50 result in test [1] was “Not Active”; in test [2], “Not Active”; in test [3] (sf9), “Not Active”; in test [4], “Not Active”; in test [5], “Not Active”; in test [6] (read-out: IC50), 4.97 µM. In addition, the IC50 entry in test [7] is listed as “Not Active”. Besides, the Ki in test [6] (read-out: Ki) was found to be 4.92 µM.

Consider `C[C@@H]1CC[C@@]2(OC1)O[C@H]1[C@@H](O)[C@H]3[C@@H]4CC[C@H]5C[C@@H](O[C@@H]6O[C@H](CO)[C@H](O[C@@H]7O[C@H](CO)C(O)[C@H](O[C@@H]8OC[C@@H](O)[C@H](O)[C@H]8O)[C@H]7O[C@@H]7O[C@H](CO)[C@H](O)[C@H](O[C@@H]8O[C@H](CO)[C@@H](O)[C@H](O)[C@H]8O)[C@H]7O)[C@H](O)[C@H]6O)[C@H](O)C[C@]5(C)[C@H]4CC[C@]3(C)[C@H]1[C@@H]2C` (stereo partly drawn) [DIGITONIN], for which the IC50 result in test [1], in test [2], in test [3] (sf9), in test [4], in test [5] and in test [6] (mdck) was “Not Active” each time. In addition, the IC50 entry in test [7] is reported as “Not Active”.

For `OC(CCCN1CCCCC1)(c1ccccc1)c1ccccc1` [DIPHENIDOL], the IC50 result in test [1], in test [2], in test [3] (sf9), in test [4], in test [5] and in test [6] (mdck) was “Not Active” in each case. Moreover, the IC50 result in test [7] was “Not Active”.

Take `C[C@H]1O[C@@H](n2cc(F)c(=O)[nH]c2=O)[C@H](O)[C@@H]1O` [DOXIFLURIDINE]: the IC50 result in test [1], in test [2], in test [3] (sf9), in test [4], in test [5] and in test [6] (mdck) was “Not Active” throughout. In addition, the IC50 result in test [7] is reported as “Not Active”.

Consider `Cn1c(=O)c2c(ncn2CC(O)CO)n(C)c1=O` (stereo not drawn) [DYPHYLLINE], for which the IC50 result in test [1], in test [2], in test [3] (sf9), in test [4], in test [5] and in test [6] (mdck) was “Not Active” in each case. The IC50 result in test [7] is listed as “Not Active”.

Consider `CC[C@H]1CN2CCc3cc(OC)c(OC)cc3[C@@H]2C[C@@H]1C[C@H]1NCCc2cc(OC)c(OC)cc21` [EMETINE], for which the IC50 result in test [1] was “Not Active”; in test [2], “Not Active”; in test [3] (read-out: IC50) it was 182 nM; in test [4] it was “Not Active”; in test [5], “Not Active”; in test [6] (mdck), “Not Active”. Also, the IC50 entry in test [7] is “Not Active”. Also, in test [3] (read-out: Ki), the Ki stood at 26 nM.

`COC(=O)CCc1ccc(OCC(O)CNC(C)C)cc1` (stereo not drawn) [ESMOLOL]: the IC50 result in test [1], in test [2], in test [3] (sf9), in test [4], in test [5] and in test [6] (mdck) was “Not Active” in each case. Besides, the 50% inhibitory concentration (IC50) entry in test [7] was “Not Active”.

Turning to `CCC1(C)CC(=O)NC1=O` (stereo not drawn) [ETHOSUXIMIDE], the half-inhibitory concentration (IC50) result in test [1], in test [2], in test [3] (sf9), in test [4], in test [5] and in test [6] (mdck) was “Not Active” each time. Further, the IC50 entry in test [7] is given as “Not Active”.
